Measured values taken from ChEMBL document CHEMBL4043225, “Identification of potent, nonabsorbable agonists of the calcium-sensing receptor for GI-specific administration” (Bioorg Med Chem Lett, 2017).
pEC50: −log10 of the molar value.

What was measured:
[1] = biological target: T1, Extracellular calcium-sensing receptor (Homo sapiens) (UniProt P41180); assay: (§1) Agonist activity at human CaSR expressed in HEK293 cells assessed as increase in intracellular calcium mobilization by fluo-4AM dye based FLIPR assay; type: functional, cell-based
T1 sequence (whole entry): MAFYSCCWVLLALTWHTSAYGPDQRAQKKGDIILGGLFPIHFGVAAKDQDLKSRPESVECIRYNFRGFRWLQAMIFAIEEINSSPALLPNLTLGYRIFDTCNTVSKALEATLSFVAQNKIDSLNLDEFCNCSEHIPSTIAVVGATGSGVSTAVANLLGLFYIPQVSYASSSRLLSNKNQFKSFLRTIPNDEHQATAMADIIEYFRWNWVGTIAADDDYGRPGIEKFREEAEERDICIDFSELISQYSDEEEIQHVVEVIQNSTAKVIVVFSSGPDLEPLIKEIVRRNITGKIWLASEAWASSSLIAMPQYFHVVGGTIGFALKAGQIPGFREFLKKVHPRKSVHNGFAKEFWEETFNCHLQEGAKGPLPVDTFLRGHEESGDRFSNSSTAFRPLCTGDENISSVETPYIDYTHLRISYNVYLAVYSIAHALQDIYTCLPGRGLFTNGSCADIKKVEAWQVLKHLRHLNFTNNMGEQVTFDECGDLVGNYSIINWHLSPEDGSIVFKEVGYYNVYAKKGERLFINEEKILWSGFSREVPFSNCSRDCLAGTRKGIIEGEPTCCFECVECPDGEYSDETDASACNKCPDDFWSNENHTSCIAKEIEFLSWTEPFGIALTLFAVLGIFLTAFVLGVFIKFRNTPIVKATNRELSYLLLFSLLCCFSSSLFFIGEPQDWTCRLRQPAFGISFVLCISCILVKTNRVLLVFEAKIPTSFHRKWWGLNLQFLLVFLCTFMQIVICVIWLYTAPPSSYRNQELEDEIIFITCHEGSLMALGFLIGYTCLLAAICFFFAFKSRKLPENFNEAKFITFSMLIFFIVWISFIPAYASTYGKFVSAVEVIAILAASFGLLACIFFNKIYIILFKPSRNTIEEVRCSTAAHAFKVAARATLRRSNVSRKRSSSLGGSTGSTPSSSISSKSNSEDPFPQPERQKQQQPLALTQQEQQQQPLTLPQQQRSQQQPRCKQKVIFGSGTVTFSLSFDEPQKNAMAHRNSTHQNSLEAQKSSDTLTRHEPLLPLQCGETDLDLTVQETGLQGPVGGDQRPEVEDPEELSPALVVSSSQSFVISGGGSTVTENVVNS

[2] = biological target: T2, Extracellular calcium-sensing receptor (Homo sapiens, UniProt P41180); assay: as §1; type: functional, cell-based; conditions: for EC50: read-out: pEC50 (converted)
T2 sequence (P41180 whole entry): T1 sequence (whole entry)

[3] = Half-life in Sprague-Dawley rat cecal homogenates at 10 uM by LC-MS/MS analysis; type: ADME, tissue-based, Caecum
[4] = Protein binding in CD rat plasma at 10 mg/kg, administered via gavage; type: ADME, organism-based; conditions: po, read-out: PPB (converted)
[5] = Aqueous solubility of the compound in FASSIF; type: physicochemical
[6] = AUC in CD rat portal vein at 10 mg/kg, po administered via gavage; type: ADME, organism-based
[7] = Cmax in CD rat portal vein at 30 mg/kg, po administered via gavage; type: ADME, organism-based; set-up: dose 30 mg/kg, route oral
[8] = biological target: T3, Extracellular calcium-sensing receptor (Rattus norvegicus) (UniProt P48442); assay: (§2) Agonist activity at rat CaSR expressed in HEK293 cells assessed as increase in intracellular calcium mobilization by fluo-4AM dye based FLIPR assay; type: functional, cell-based
T3 sequence (whole entry): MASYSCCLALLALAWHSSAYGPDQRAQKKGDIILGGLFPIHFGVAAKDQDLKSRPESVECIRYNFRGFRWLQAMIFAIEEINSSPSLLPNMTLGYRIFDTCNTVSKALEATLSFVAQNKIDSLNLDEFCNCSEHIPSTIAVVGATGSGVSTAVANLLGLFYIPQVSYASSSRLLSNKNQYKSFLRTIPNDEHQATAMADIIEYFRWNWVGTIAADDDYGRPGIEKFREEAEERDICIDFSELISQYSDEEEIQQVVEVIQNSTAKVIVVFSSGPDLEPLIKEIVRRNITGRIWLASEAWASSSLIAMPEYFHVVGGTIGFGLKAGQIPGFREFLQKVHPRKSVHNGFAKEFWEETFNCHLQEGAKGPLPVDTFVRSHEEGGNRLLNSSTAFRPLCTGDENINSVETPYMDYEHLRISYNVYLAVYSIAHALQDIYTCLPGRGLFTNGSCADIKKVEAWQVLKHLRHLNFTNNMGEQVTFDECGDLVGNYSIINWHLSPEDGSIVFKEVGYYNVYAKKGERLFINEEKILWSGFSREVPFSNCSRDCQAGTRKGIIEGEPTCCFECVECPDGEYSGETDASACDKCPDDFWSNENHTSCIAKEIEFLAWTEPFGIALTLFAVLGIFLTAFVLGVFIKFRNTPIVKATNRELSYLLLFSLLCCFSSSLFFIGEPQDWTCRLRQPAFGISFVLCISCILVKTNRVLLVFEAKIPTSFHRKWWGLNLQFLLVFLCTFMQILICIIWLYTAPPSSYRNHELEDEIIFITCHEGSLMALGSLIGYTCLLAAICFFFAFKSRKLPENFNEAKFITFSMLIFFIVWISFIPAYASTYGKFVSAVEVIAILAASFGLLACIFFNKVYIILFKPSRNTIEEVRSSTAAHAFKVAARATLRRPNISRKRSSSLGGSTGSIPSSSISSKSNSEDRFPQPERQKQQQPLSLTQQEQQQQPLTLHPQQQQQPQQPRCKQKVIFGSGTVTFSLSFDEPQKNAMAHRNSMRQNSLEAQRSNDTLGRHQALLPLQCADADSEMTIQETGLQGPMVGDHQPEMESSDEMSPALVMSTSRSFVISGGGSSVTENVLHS

[9] = biological target: T4, Extracellular calcium-sensing receptor (Rattus norvegicus, UniProt P48442); assay: as §2; type: functional, cell-based
T4 sequence (P48442 whole entry): T3 sequence (whole entry)

[10] = Drug recovery in CD rat feces at 30 mg/kg, po administered via gavage measured by LC-MS/MS analysis; type: ADME, organism-based; conditions: read-out: Drug recovery
[11] = Cmax in CD rat systemic circulation at 30 mg/kg, po administered via gavage; type: ADME, organism-based; set-up: dose 30 mg/kg, route oral
[12] = biological target: T5, Extracellular calcium-sensing receptor (Mus musculus) (UniProt Q9QY96); assay: (§3) Agonist activity at mouse CaSR expressed in HEK293 cells assessed as increase in intracellular calcium mobilization by fluo-4AM dye based FLIPR assay; type: functional, cell-based
T5 sequence (whole entry): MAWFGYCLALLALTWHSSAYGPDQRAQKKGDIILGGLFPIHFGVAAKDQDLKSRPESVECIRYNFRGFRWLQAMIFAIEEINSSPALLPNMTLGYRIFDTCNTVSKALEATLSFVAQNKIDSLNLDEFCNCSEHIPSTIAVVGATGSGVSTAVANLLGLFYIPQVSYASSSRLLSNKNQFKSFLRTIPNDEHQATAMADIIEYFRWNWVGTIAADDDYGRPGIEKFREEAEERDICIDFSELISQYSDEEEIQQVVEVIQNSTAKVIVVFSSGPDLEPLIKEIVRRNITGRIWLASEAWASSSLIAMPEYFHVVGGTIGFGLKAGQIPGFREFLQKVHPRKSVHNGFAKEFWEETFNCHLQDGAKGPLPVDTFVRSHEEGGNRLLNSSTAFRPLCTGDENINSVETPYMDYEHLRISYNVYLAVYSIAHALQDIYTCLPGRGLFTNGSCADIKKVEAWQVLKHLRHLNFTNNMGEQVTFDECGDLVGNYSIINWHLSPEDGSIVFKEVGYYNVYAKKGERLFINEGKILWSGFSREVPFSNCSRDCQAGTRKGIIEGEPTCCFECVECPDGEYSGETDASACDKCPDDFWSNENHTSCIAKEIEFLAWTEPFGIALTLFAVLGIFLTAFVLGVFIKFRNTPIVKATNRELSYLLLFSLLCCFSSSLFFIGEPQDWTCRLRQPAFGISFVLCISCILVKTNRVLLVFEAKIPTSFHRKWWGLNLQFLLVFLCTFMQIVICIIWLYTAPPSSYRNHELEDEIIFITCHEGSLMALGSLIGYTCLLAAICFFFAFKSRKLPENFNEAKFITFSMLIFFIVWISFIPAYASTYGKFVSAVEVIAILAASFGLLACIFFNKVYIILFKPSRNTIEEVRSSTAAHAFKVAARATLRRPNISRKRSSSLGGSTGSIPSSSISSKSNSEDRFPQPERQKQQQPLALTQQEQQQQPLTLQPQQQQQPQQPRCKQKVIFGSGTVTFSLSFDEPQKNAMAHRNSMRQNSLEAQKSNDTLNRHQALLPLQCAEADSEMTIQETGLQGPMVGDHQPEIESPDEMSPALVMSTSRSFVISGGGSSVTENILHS

[13] = biological target: T6, Extracellular calcium-sensing receptor (Mus musculus, UniProt Q9QY96); assay: as §3; type: functional, cell-based
T6 sequence (Q9QY96 whole entry): T5 sequence (whole entry)

[14] = Aqueous solubility of the compound in FESSIF; type: physicochemical
[15] = system: Rattus norvegicus; assay: Unbound Cmax in CD rat systemic circulation at 10 mg/kg, po administered via gavage; type: ADME, organism-based; conditions: in vivo
[16] = Aqueous solubility of the compound in SGF; type: physicochemical
[17] = AUC in CD rat systemic circulation at 10 mg/kg, po administered via gavage; type: ADME, organism-based
[18] = system: Rattus norvegicus; assay: Unbound Cmax in CD rat portal vein at 10 mg/kg, po administered via gavage; type: ADME, organism-based; conditions: in vivo

Row | Structure (SMILES) | %max [1] | EC50 [2] | half-life at 10 µM [3] | also measured
1 | C[C@@H](N[C@H]1CCN(c2ccc(C(=O)NCCNC(CO)(CO)CO)cc2)C1)c1cccc2ccccc12 | 101% | 0.00794 µM | 3.4 h | –
2 | C[C@@H](N[C@H]1CCN(c2ccc(S(=O)(=O)NCCN(C)C)cc2)C1)c1cccc2ccccc12 | 84% | 0.0126 µM | – | –
3 | C[C@@H](N[C@H]1CCN(c2ccc(C(=O)N[C@H](CCCCN)C(=O)O)cc2)C1)c1cccc2ccccc12 | 96% | 0.1 µM | 4.3 h | –
4 | C[C@@H](N[C@H]1CCN(c2ccc(S(N)(=O)=O)cc2)C1)c1cccc2ccccc12 | 87% | 0.02 µM | > 12 h | –
5 | C[C@@H](N[C@H]1CCN(c2ccc(C(=O)NCCCN3CCC(C(=O)O)CC3)cc2)C1)c1cccc2ccccc12 | 84 to 93% | – | > 12 h | fraction unbound [4]: 0.07; solubility [5]: > 1 mg/mL; AUC [6]: 0.265 µg·h/mL; Cmax [7]: 0.057 µg/mL; %max [8]: 66%; pEC50 [9]: 6.50; pEC50 ([2]; read-out: EC50): 7.30; dose excreted [10]: 86.3%; Cmax [11]: 0.048 µg/mL; %max [12]: 62%; pEC50 [13]: 6.60; solubility [14]: > 1 mg/mL; fCmax [15]: 3 ng/mL; solubility [16]: > 1 mg/mL; AUC [17]: 0.266 µg·h/mL; fCmax [18]: 7 nM
6 | C[C@@H](N[C@H]1CCN(c2ccc(C(=O)NCCCCNC(CO)(CO)CO)cc2)C1)c1cccc2ccccc12 | 92% | 0.0158 µM | 8 h | Cmax [7]: 0.54 µg/mL; Cmax [11]: 0.44 µg/mL
7 | C[C@@H](N[C@H]1CCN(c2ccc(S(=O)(=O)NC(=O)CCC(=O)O)cc2)C1)c1cccc2ccccc12 | 74% | 0.501 µM | 10.5 h | –
8 | C[C@@H](N[C@H]1CCN(c2ccc(C(=O)NCCS(=O)(=O)O)cc2)C1)c1cccc2ccccc12 | 85% | 0.0398 µM | 0.8 h | –
9 | C[C@@H](N[C@H]1CCN(c2ccc(P(=O)(O)O)cc2)C1)c1cccc2ccccc12 | 70% | 3.16 µM | – | –
